Patent US12473310B2, “Vitamin D3 phosphate and pharmaceutically acceptable salts thereof, pharmaceutical compositions comprising the compound and methods for preparing the compound” (King's College London, priority 2020, dated 2025)
Where a name gives a salt, the structure may show the parent alone.

Columns and labels:
[1] = skin permeation and deposition, automated Franz diffusion cell (Example 5); assay type: in vitro ADME; settings: PG formulation
Description: For the final formulation, 61.5 mg of cholecalciferol phosphate acid in 4.1 mL hexane was added into 1.435 mL DURO-TAK 87-2051 (51.5 w/v %) with 16.4 μL α-tocopherol and 20.5 μL diethylene glycol monoethyl ether. Likewise, 120 mg of cholecalciferol phosphate disodium salt in 35.2 mL MeOH:water (10:1) was added to 1.336 mL of DURO-TAK 87-2051 (51.5 w/v %) in 56 mL ethyl acetate with 32 mg of α-tocopherol and 48 μL diethylene glycol monoethyl ether. Each formulation was spread evenly on the 10×10 cm patch tray and left overnight to dry completely. Following the complete drying of the solvents, the adhesive layer was covered by the M3 Release layer (SCOTCHPAK 9755, UK), compressed, and then cut using a 34 mm circular manual die cutter (SCP Super Cutting Press, UK).
Subsequently, 1 mL aliquots were applied to the skin.
The automated Franz diffusion cell was used to investigate the permeation of cholecalciferol, cholecalciferol phosphate salt and cholecalciferol phosphate acid through porcine skin. Fresh white adult porcine ears were obtained from a local butcher (Ginger Pig, UK). Any damaged ears were discarded. The ears were removed from the carcass after hair removal. […] The collected receiver fluid was analysed by HPLC methods described previously.
At the end of the transport studies, the Franz cells were dismantled, and the donor solution was collected into bottles containing 10 mL of extraction fluid; MeOH for cholecalciferol, cholecalciferol phosphate acid and MeOH:water (90:10) for cholecalciferol phosphate salt, by wiping the surface of the skin and the inside of the donor compartment with two wet and then two dry cotton buds. […] Each collection was analysed by the HPLC method described above. Thus, the amount of each test agent on the surface of the skin, deposited in the skin, and passed into the receiver fluid was determined so that % mass recovery per cm^2 per skin could be calculated and drug deposition profiles could be obtained.

in vitro = in vitro ADME, porcine; settings: for total penetration into / deposited in the skin: vehicle 100% PG, 0.25 mm porcine skin
Description: Donor solutions (2.5 mg/mL, 100,000 IU), which is an infinite dose, containing cholecalciferol and cholecalciferol phosphate disodium prepared according to Example 1, were compared to PG:EtOH (50:50) for cholecalciferol and 100% water for cholecalciferol phosphate.
The Franz diffusion cell was used to investigate the permeation of cholecalciferol and cholecalciferol phosphate through porcine skin. Fresh white adult porcine ears were obtained and any damaged ears were discarded. The ears were removed from the carcass after hair removal. The ears were washed with deionised water, the residual water on the skin surface was immediately removed by blotting with a tissue, visible hairs were trimmed carefully, and the ears were stored at −20° C. for no longer than 30 days until required. On the day of the experiment the skin was defrosted, and the subcutaneous fat was removed using a scalpel. The tissue was cut into the appropriate size sections (0.25 mm thick, 2.19±0.21 cm^2) to be mounted with the stratum corneum (SC) facing the donor compartment between donor and receiver compartments of Franz diffusion cells. The pieces of skins were sealed between the two compartments using parafilm, and 12 mm magnetic follows was placed into the receiver compartment. The receiver compartment in the Franz diffusion cell was filled with 100% PG for cholecalciferol; and a 1:1 mixture of PG: (MeOH:PBS ([…]), 90:10) for cholecalciferol phosphate (9.23±0.23 mL). The cell sealing was confirmed by cell inversion and monitoring solvent back diffusion. Sink conditions were maintained throughout the transport assays. The temperature of the Franz diffusion was maintained at 37° C. in a water bath, to set up the skin temperature 32° C. (Maddock, W. G. and Coller, F. A., ([…]) The role of the extremities in the dissipation of heat, American Journal of Physiology-Legacy Content, 106(3), 589-596). After 1 h equilibration at 37° C. in the water bath, 1 mL of receiver fluid was taken at time points 0 in 30 min and a fresh 100% PG was replaced to keep the volume content, and 1 mL of each formulation was applied in the donor compartment. After 24 h, the receiver fluid was collected and analysed by HPLC methods.
At the end of the transport studies, the Franz cells were dismantled, and the donor solution was collected into bottles containing 10 mL of extraction fluid; PG:EtOH (50:50) for cholecalciferol and MeOH:water (90:10) for cholecalciferol phosphate, by wiping the surface of the skin and inside of the donor compartment with two wet and then two dry cotton buds. The SC was removed from the epidermis by tape stripping. A 300 mg weight was used onto the skin to press the adhesive tape to apply defined pressure for 10 sec. A piece of tape that can cover the diffusion area was used to remove the SC. The first two pieces of tape were added into the donor solution, as the first 2 strips were considered as part of the applied formulation and its removal was part of the formulation wash off (Primo, F. L. et al., (2008) In vitro studies of cutaneous retention of magnetic nanoemulsion loaded with zinc phthalocyanine for synergic use in skin cancer treatment, Journal of Magnetism and Magnetic Materials, 320(14), e211-e214.; Sheth, N. V. et al., (1987) Measurement of the stratum corneum drug reservoir to predict the therapeutic efficacy of topical iododeoxyuridine for herpes simplex virus infection. Journal of investigative dermatology, 89(6), 598-602). The next 20 pieces of tapes were added into bottles containing 10 mL of extraction fluid. The epidermis was removed from the dermis and cut into small pieces by scalpels, placed in bottles containing 2 mL of extraction fluid. Furthermore, the dermis was cut into small pieces and was placed in bottles containing 2 mL of extraction fluid. […]

## C=C1CC[C@H](OP(=O)(O)O)C/C1=C/C=C1\CCC[C@@]2(C)C1CC[C@@H]2[C@H](C)CCCC(C)C (stereo partly shown) [Cholecalciferol phosphate disodium salt, cholecalciferol phosphate disodium salt]
[1]; phosphate disodium salt
  fold higher transdermal permeation through the skin compared to cholecalciferol: ~35.02 fold
In vitro
  deposition in the dermis compared with cholecalciferol: not statistically different
In vitro; pig, 24 h, 2.5 mg/mL
  deposited in the skin: 29.59±9.44 μg/cm^2
  deposition in the SC: 50.15±8.20 μg/cm^2
  deposition in the epidermis: 113.96±18.79 μg/cm^2
  skin deposition, times more than the cholecalciferol: 1.97 times
In vitro; 2.5 mg/mL, 24 h
  total penetration into / deposited in the skin: 189.99±29.10 μg/cm^2
In vitro; vehicle PG, 24 h
  transdermal penetration, passed all the way through the skin: 50.50±6.40 μg/cm^2

## C=C1CC[C@H](O)C/C1=C/C=C1\CCC[C@]2(C)[C@@H]([C@H](C)CCCC(C)C)CC[C@@H]12 [Cholecalciferol, cholecalciferol, reference compound]
[1]; 1.0 mm porcine skin, 24 h
  transdermal permeation through the skin: 1,245.2 IU
In vitro; pig, 24 h, 2.5 mg/mL
  total recovery from the skin permeation experiments: 80%
In vitro; pig, total recovery from the skin permeation experiments
  recovery at 24 h, 2.5 mg/mL: 61%
In vitro; 2.5 mg/mL, 24 h
  total penetration into / deposited in the skin: 96.51±17.88 μg/cm^2
In vitro; vehicle PG:EtOH (50:50), 24 h
  total penetration into the skin: 80.63±13.23 μg/cm^2
In vitro; vehicle PG, 24 h
  deposition in the SC: 1.79±1.80 μg/cm^2
  deposition in the epidermis: 40.13±24.26 μg/cm^2
  transdermal penetration, passed all the way through the skin: did not pass through the tissue
